For 23 molecules, Ki and activation results are on record in US20240132513A1, “BENZAZEPINE DERIVATIVES, COMPOSITIONS, AND METHODS FOR TREATING COGNITIVE IMPAIRMENT” (AGENEBIO, INC., priority 2022, published 2024).

The target in one assay is α5β3γ2 GABAA R (Homo sapiens, UniProt P18507+P31644). Put plainly: Binding activity on GABAA R: inhibition of [3H]Ro15-1788 binding, α5 containing receptor. A digest of the protocol: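 Membranes from dexamethasone-induced (0.5 μM, 1 day) Ltk cells stably expressing α5β3γ2 receptors, 0.2 mg/ml protein, incubated with [3H]Ro15-1788 for 1 h at 4 °C in 50 mM KH2PO4/1 mM EDTA/0.2 M KCl, pH 7.4. Nonspecific binding with 10 μM diazepam; bound ligand by GF/B filtration and scintillation counting, triplicates.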

The target in a further assay is T1, GABAA R (α5β2γ2) (Homo sapiens, UniProt P18507+P31644).
T1 construct: expressed in transfected cells
Put plainly: Positive allosteric modulator activity: potentiation of EC20 GABA current in oocytes. The assay is classed as cell-based. The protocol:
On day 1, 1 ng/32 nL of GABAA α5β2γ2 cDNA was injected into one oocyte. Test starts on day 2. The cDNA injected to the oocytes was a mix of alpha, beta and gamma, their ratio is 1:1:10 (by weight) and the total weight of the mixed 3 subunits to be injected in one oocyte was 1 ng in 32 nl volume. The injected oocytes can also be tested on day 3. In such case, the cDNA amount injected to the oocytes should be reduced by 20%.
Compounds of the present disclosure were tested using the following procedures.
8 oocytes were placed in 8 chambers of OpusXpress and superfused with Modified Barth's Saline (MBS) at 3 mL/min. Glass electrodes back-filled with 3M KCl (0.5-3 megaohms) were used. Membrane potential of oocytes was voltage-clamped at −60 mV. • 2).
Control Test (Diazepam or Methyl 3,5-Diphenylpyridazine-4-Carboxylate) • 1). New oocytes was used to run new test. • 2). […] Oocytes were washed with MBS for 5-10 min. • 4). […] Itest was divided by IGABA to obtain potentiation (%).
Test Compounds at Multiple Doses • 1). Repeat the above steps 1), 2) and 3) in the control test. • 2). […] Divide Itest by IGABA to obtain potentiation (%). • 3). Discard all tested oocytes, new oocytes were used and the above steps 1) and 2) were repeated to test second concentration of the same compound. Each oocyte was used for only one concentration test for a single test compound. The steps were repeated for other test compounds.

Where [1] appears, read: ranges of the column heads, [3H]Ro15-1788, Ltk cell membranes.
The mark [2] stands for this setting: read-out: GABA α5 Functional Data: potentiation.
The mark [3] stands for this setting: read-out: GABA α5 Functional Data: potentiation, @ 100 nM, EC20 GABA, ranges of the column heads.

Like-named read-outs stand apart in the source and are kept apart here.

T1 sequence (P31644 32-462): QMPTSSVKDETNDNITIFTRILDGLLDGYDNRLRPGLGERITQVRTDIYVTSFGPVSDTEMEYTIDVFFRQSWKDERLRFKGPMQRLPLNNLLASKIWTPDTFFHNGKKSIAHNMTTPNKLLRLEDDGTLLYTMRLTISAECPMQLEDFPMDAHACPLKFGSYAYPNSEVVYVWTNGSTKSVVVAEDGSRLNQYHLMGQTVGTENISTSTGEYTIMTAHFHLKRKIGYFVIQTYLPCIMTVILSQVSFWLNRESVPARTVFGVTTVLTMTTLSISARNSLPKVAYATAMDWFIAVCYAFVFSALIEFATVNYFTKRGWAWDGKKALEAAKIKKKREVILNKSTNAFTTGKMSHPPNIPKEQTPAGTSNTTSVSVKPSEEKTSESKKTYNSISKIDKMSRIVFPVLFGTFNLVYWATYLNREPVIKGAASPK
T1 sequence (P47870 25-512 partner limits assumed): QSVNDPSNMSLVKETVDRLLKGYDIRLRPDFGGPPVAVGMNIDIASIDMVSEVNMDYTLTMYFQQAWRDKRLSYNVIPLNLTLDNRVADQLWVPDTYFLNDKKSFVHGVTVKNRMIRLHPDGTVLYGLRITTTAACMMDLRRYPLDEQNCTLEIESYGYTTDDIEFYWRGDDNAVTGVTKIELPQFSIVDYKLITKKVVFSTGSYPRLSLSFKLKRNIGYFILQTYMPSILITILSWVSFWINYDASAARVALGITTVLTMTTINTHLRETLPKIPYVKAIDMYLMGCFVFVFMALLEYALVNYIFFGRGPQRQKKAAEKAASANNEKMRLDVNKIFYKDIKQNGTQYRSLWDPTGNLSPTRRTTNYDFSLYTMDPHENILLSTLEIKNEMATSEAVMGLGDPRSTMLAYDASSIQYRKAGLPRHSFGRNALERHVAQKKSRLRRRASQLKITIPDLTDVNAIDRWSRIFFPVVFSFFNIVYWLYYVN
T1 sequence (P18507 40-475): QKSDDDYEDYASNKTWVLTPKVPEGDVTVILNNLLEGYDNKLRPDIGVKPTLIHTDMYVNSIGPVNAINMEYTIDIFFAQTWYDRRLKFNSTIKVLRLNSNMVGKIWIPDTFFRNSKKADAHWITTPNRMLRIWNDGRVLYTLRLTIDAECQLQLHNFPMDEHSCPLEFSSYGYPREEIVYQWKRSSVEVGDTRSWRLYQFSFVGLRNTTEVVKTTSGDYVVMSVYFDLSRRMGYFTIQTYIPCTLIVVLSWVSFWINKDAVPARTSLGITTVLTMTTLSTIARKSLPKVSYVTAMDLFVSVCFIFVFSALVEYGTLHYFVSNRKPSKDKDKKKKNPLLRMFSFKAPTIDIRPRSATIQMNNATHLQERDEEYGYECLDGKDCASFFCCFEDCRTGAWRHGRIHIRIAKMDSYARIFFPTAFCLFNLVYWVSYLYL
Sequence of α5β3γ2 GABAA R (P31644 32-462): as the sequence (P31644 32-462) above
Sequence of α5β3γ2 GABAA R (P28472 26-473 partner): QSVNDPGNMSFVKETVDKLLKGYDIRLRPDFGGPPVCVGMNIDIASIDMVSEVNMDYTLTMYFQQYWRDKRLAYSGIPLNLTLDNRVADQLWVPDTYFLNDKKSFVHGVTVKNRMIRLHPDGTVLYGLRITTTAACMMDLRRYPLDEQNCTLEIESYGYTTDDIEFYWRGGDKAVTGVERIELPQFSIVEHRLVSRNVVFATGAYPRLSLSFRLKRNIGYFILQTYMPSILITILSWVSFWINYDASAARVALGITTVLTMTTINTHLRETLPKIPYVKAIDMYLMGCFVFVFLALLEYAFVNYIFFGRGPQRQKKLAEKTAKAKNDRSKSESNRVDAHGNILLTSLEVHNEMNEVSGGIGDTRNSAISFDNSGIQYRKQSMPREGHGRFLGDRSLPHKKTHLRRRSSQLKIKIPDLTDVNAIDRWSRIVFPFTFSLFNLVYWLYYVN
Sequence of α5β3γ2 GABAA R (P18507 40-475): as the sequence (P18507 40-475) above

A word on the Ki: it is a measure of affinity in units of concentration, obtained from inhibition or displacement. Read a low Ki as tighter binding. Regarding `COc1ccc2c(c1)-c1nn(CC3COC3)cc1Cc1c(-c3nc(C4CC4)no3)ncn1-2` [Compound 226], on α5β3γ2 GABAA R (setting [1]), the Ki is below 100 nM. Besides, the activation at 0.1 µM on GABAA R (α5β2γ2) (setting [2]) was in the range of 5 to 20%.

`COc1ccc2c(c1)-c1nn(CC3CCCO3)cc1Cc1c(-c3noc(COC(C)C)n3)ncn1-2` (stereo not shown) [Compound 301] had a Ki on α5β3γ2 GABAA R below 100 nM. The activation at 0.1 µM on GABAA R (α5β2γ2) (setting [3]) was in the range of 20 to 50%.

For the molecule `Cn1cc2c(n1)-c1cc(Cl)ccc1-n1cnc(-c3noc(C4(C)COC4)n3)c1C2` [Compound 225], the Ki at α5β3γ2 GABAA R is below 100 nM. The activation at 0.1 µM on GABAA R (α5β2γ2) (setting [3]) is 20 to 50%.

With `COc1ccc2c(c1)-c1nn(CC3CCCO3)cc1Cc1c(-c3noc(C4COC4)n3)ncn1-2` (stereo not shown) [Compound 294], on α5β3γ2 GABAA R, the Ki was below 100 nM. Moreover, the activation at 0.1 µM on GABAA R (α5β2γ2) (setting [3]) was above 50%.

On α5β3γ2 GABAA R, `COc1ccc2c(c1)-c1nn(C)cc1Cc1c(-c3noc([C@H]4CCOC4)n3)ncn1-2` [Compound 257] yielded a Ki below 100 nM. Also, the activation at 0.1 µM on GABAA R (α5β2γ2) (setting [3]) was 20 to 50%.

At α5β3γ2 GABAA R, `COc1ccc2c(c1)-c1nn(C)cc1Cc1c(-c3nc(C(C)(C)C)no3)ncn1-2` [Compound 118] registered an inhibition constant Ki below 100 nM. For the same molecule, the activation at 0.1 µM on GABAA R (α5β2γ2) (setting [3]) lay within 20 to 50%.

On α5β3γ2 GABAA R, `COc1ccc2c(c1)-c1[nH]ncc1Cc1c(C#CC(C)(C)C)ncn1-2` [Compound 73] gave a Ki below 100 nM. Moreover, the activation at 0.1 µM on GABAA R (α5β2γ2) (setting [3]) lay in the range of 5 to 20%.

In the case of `COC(C)(C)c1noc(-c2ncn3c2Cc2cn(C)nc2-c2cc(Cl)ccc2-3)n1` [Compound 233], the Ki at α5β3γ2 GABAA R (setting [1]) was below 100 nM. The activation at 0.1 µM on GABAA R (α5β2γ2) (setting [2]) was 5 to 20%.

Consider `COc1ccc2c(c1)-c1nn(C)cc1Cc1c(-c3noc(COC4CCCC4)n3)ncn1-2` [Compound 297], for which the Ki on α5β3γ2 GABAA R is below 100 nM. Besides, at GABAA R (α5β2γ2) (setting [3]), the activation at 0.1 µM lay within 5 to 20%.

Consider `CC(C)c1noc(-c2ncn3c2Cc2cn(CCN(C)C)nc2-c2cc(Cl)ccc2-3)n1` [Compound 112], for which the Ki on α5β3γ2 GABAA R was below 100 nM. Besides, the activation at 0.1 µM on GABAA R (α5β2γ2) (setting [3]) lay within 5 to 20%.

Consider `COc1ccc2c(c1)-c1nn(C)cc1Cc1c(-c3noc(C)n3)ncn1-2` [Compound 131], for which, at α5β3γ2 GABAA R, the Ki is below 100 nM. Besides, on GABAA R (α5β2γ2) (setting [3]), the activation at 0.1 µM was in the range of 5 to 20%.

In turn, `COc1ccc2c(c1)-c1nn(C(C)C)cc1Cc1c(-c3nc(C4CC4)no3)ncn1-2` [Compound 169] showed a Ki at α5β3γ2 GABAA R (setting [1]) below 100 nM. Also, on GABAA R (α5β2γ2) (setting [2]), the activation at 0.1 µM lay within 5 to 20%.

In the case of `Cn1cc2c(n1)-c1cc(Cl)ccc1-n1cnc(-c3nc(CN4CCOCC4)co3)c1C2` [Compound 276], on α5β3γ2 GABAA R, the Ki is below 100 nM. On GABAA R (α5β2γ2) (setting [3]), the activation at 0.1 µM was in the range of 20 to 50%.

In turn, `Clc1ccc2c(c1)-c1nn(CC3CCCO3)cc1Cc1c(-c3nc(C4CCOC4)no3)ncn1-2` (stereo not shown) [Compound 281] came in with a Ki at α5β3γ2 GABAA R below 100 nM. For the same molecule, the activation at 0.1 µM at GABAA R (α5β2γ2) (setting [3]) fell in the range of 5 to 20%.

For the molecule `Clc1ccc2c(c1)-c1nn(Cc3ccccn3)cc1Cc1c(-c3nc(C4CC4)no3)ncn1-2` [Compound 135], the Ki on α5β3γ2 GABAA R is below 100 nM. In addition, the activation at 0.1 µM on GABAA R (α5β2γ2) (setting [3]) was in the range of 5 to 20%.

`CC(C)n1cc2c(n1)-c1cc(Cl)ccc1-n1cnc(-c3nc(C4CC4)no3)c1C2` [Compound 154] gave a Ki on α5β3γ2 GABAA R below 100 nM. Besides, on GABAA R (α5β2γ2) (setting [3]), the activation at 0.1 µM was 5 to 20%.

As for `COc1ccc2c(c1)-c1nn(C)cc1Cc1c(-c3noc(C4CCOC4)n3)ncn1-2` (stereo not shown) [Compound 136], the Ki on α5β3γ2 GABAA R is below 100 nM. Further, the activation at 0.1 µM on GABAA R (α5β2γ2) (setting [3]) lay in the range of 20 to 50%.

At α5β3γ2 GABAA R, `Cn1cc2c(n1)-c1cc(Cl)ccc1-n1cnc(-c3nc([C@H]4CCOC4)no3)c1C2` [Compound 253] returned a Ki below 100 nM. Besides, the activation at 0.1 µM on GABAA R (α5β2γ2) (setting [3]) was in the range of 5 to 20%.

For `CC(C)c1noc(-c2ncn3c2Cc2cn(Cc4ccncc4)nc2-c2cc(Cl)ccc2-3)n1` [Compound 97], at α5β3γ2 GABAA R, the Ki was below 100 nM. Further, the activation at 0.1 µM at GABAA R (α5β2γ2) (setting [3]) lay within 5 to 20%.

The molecule `COc1ccc2c(c1)-c1nn(CC3COC3)cc1Cc1c(-c3noc(C(C)(C)OC)n3)ncn1-2` [Compound 312] gave a Ki on α5β3γ2 GABAA R below 100 nM. Besides, the activation at 0.1 µM at GABAA R (α5β2γ2) (setting [3]) fell in the range of 5 to 20%.

`Cn1cc2c(n1)-c1cc(Cl)ccc1-n1cnc(-c3noc(C4CCOC4)n3)c1C2` (stereo not shown) [Compound 145] yielded a Ki on α5β3γ2 GABAA R below 100 nM. Moreover, the activation at 0.1 µM at GABAA R (α5β2γ2) (setting [3]) lay in the range of 5 to 20%.

In the case of `Cn1cc2c(n1)-c1cc(Cl)ccc1-n1cnc(-c3noc(C4COCCO4)n3)c1C2` (stereo not shown) [Compound 213], the Ki at α5β3γ2 GABAA R is below 100 nM. At GABAA R (α5β2γ2) (setting [3]), the activation at 0.1 µM is above 50%.

`COc1ccc2c(c1)-c1nn(C)cc1Cc1c(-c3noc([C@H]4CCCO4)n3)ncn1-2` [Compound 258] had a Ki at α5β3γ2 GABAA R below 100 nM. Further, the activation at 0.1 µM at GABAA R (α5β2γ2) (setting [3]) is 5 to 20%.
